Measurements published in patent US11510931B2, “Compositions and methods for treating ophthalmic conditions” (MEDICON PHARMACEUTICALS, INC., priority 2016, dated 2022).

What was measured:
PGE2 = PGE2 levels in tears and cornea of rabbits by ELISA; type: in vivo, rabbit
Experimental: The effects of PS, ketorolac and dicofenac (the latter two ophthalmic NSAIDs known to induce corneal melt) on the tear levels of PGE2 in rabbits with concanavalin A-induced dry eye were compared. Three eye drops of PS 1.5% or of commercially available ketorolac 0.5% were given at 0 time, and 1 h later to rabbits with concanavalin A-induced DED. Tears were obtained at 2 h and the levels of PGE2 were determined by ELISA. PGE2 in tears of naïve rabbits (not exposed to concanavalin A nor treated) was also measured. The PGE2 levels (mean±SEM) were: Naïve, 110.4±12.6 ng/ml; PS-treated, 115.4±15.8 ng/ml; Ketorolac-treated, 77.7±8.7 ng/ml. The difference in PS vs. ketorolac was significant, p<0.02; as was the difference in ketorolac vs naïve, p<0.03. Regarding this parameter, PS differs radically form ketorolac, which induces corneal melt.
Levels of PGE2 in the corneas of three groups of rabbits were determined by ELISA. Rabbits were treated with PS 1.6% or ketorolac 0.5% eye drops topically applied to their eyes or were not treated (naïve group). Results in pg/mg protein (mean±SEM). Naïve=787.3±96.3; PS=880.6±110.3; Ketrolorac=247.2±187.4 (p<0.01 vs PS).
Rabbits with DED induced by concanavalin A as above were treated for 6 days with vehicle, or PS 2.3% or ketorolac 0.5% or diclofenac 0.1%. Compared to the vehicle group, on day 6 the PGE2 levels in the cornea were 106% of the vehicle value in the PS group (not a statistically significant difference), 1.3% in the ketorolac group (p<0.0001 vs. vehicle, and 2.3% in the diclofenac group (p<0.0001 vs. vehicle).
It was determined that the levels of PGE2 in rabbit tears in three groups of rabbits, naïve and those with Con A-induced DED that were treated for 1 week either with PS or vehicle.
In an acute experiment, administered once topically to the eyes of four groups of rabbits with Con A-induced DED was one of the following: vehicle, PS, ketorolac or diclofenac; the latter two are NSAIDs used for the treatment of ocular inflammation and pain. It was determined that the levels of PGE2 in the cornea of these rabbits obtained 1 h later as well as in the corneas of naïve rabbits.

eyes of rabbits = experiment: Safety of topically applied PS in rabbits (toxicity, intraocular pressure, corneal melt, slit lamp); type: in vivo, rabbit
From the text: The Safety of Topically Applied PS.

TGF-β = TGF-β in culture medium of human conjunctival cells (ELISA); type: cell-based
Experimental: Culture media were harvested 24 h later and the levels of TGF-β, IL-6 and IL-8 were determined by ELISA. Of note, the levels of IL-1β were below the limit of detection.

[1] = Biodistribution of PS in porcine eyes (ex vivo); type: in vitro ADME, pig; details: porcine eye ex vivo, 2% PS nanoparticle solution
From the text: Biodistribution of PS in porcine eyes (ex vivo): Explanted pig eyes were exposed to PS nanoparticle solution (PS concentration was 2%) and treated as were the human eyes.

NF-κB = NF-κB activation in the ILG of rabbits with DED; type: in vivo, rabbit; details: 1 week of treatment, vs vehicle
Experimental: Human conjunctival cells were treated with various concentrations of PS. Five hours later, TNF-α was added to the culture medium to a final concentration of 10 ng/ml and the status of NF-κB activation was determined by EMSA 1 h later. […] Similarly, after 1 week of treatment, PS suppressed NF-κB activation in the ILG of rabbits with DED compared to those treated with vehicle.

[2] = rabbits, 2 weeks of daily PS 3.6% eye drops
[3] = weekly during a 1-month application of PS
[4] = exposure/incubation 1/15 min/min
[5] = exposure/incubation 1/60 min/min
[6] = exposure/incubation 10/15 min/min
[7] = exposure/incubation 10/60 min/min

With `CCOP(=O)(OCC)OCCCCOC(=O)CC1=C(C)/C(=C/c2ccc([S+](C)[O-])cc2)c2ccc(F)cc21` (stereo not shown) [PS, phosphosulindac] the “PGE2 levels in tears” value (PGE2; Con A DED rabbits treated for 1 week, FIG. 9A) was “slightly lower than (but not significantly different from) those of naïve rabbits”, the “PGE2 levels in the cornea” value (PGE2; Con A DED rabbits, administered once topically, 1 h later, FIG. 9B) was “no different than those of vehicle-treated and naïve rabbits” and the “PGE2 levels in the cornea, % of the vehicle value” (PGE2; Con A DED rabbits, day 6, PS 2.3%, ketorolac 0.5%, diclofenac 0.1%) was 106%. The “PGE2 levels in tears” value (PGE2; Con A DED rabbits, three eye drops at 0 and 1 h, tears at 2 h, PS 1.5%, ketorolac 0.5%, mean±SEM) was 115.4 ± 15.8 ng/mL, the “PGE2 levels in the corneas” value (PGE2; rabbits, PS 1.6% or ketorolac 0.5% eye drops, mean±SEM) was 880.6±110.3 pg/mg protein and the “Intraocular pressure (Tonopen)” value (eyes of rabbits; 1-month application of PS) was “remained normal”. The signs of uveitis (eyes of rabbits; 1-month application of PS) was “No animal developed signs of uveitis”, the “tolerability of ocular application” value (eyes of rabbits; rabbits) was “very well tolerated” and the “keratitis or corneal melting (ophthalmological examination)” value (eyes of rabbits; rabbits treated for up to 3 weeks) was “no evidence of keratitis or corneal melting”. The intraocular pressure (eyes of rabbits; [2]) was “no changes in intraocular pressure”, the “topical or systemic toxicity” value (eyes of rabbits; [2]) was “no evidence of topical or systemic toxicity” and the “slit lamp examination: conjunctiva” value (eyes of rabbits; [3]) was “no evidence of follicular/papillary response or injection of the conjunctiva”. The “slit lamp examination: corneal abnormalities (staining defects, vascularization, opacification, epithelial defects, stromal thinning, melts)” value (eyes of rabbits; [3]) was “nor were there signs of corneal abnormalities”, the TGF-β reduction (TGF-β; TNF-α-stimulated, PS 1×IC50, media at 24 h) was 19% and the TGF-β reduction (TGF-β; unstimulated levels, PS 1×IC50, not statistically significant) was 4.7%. For the same molecule, the “PS in Cornea” value [1, 4] was 51.5 µM, the “PS in Lens” value [1, 4] was 9.5 µM and the “PS in Sclera” value [1, 4] was 86.6 µM. For the same molecule, the “PS in Cornea” value [1, 5] was 99.8 µM, the “PS in Lens” value [1, 5] was 4.8 µM and the “PS in Sclera” value [1, 5] was 123.9 µM. For the same molecule, the “PS in Cornea” value [1, 6] was 97.1 µM, the “PS in Lens” value [1, 6] was 1.9 µM and the “PS in Sclera” value [1, 6] was 89.9 µM. The “PS in Cornea” value [1, 7] was 170.6 µM, the “PS in Lens” value [1, 7] was 2.1 µM and the “PS in Sclera” value [1, 7] was 47.9 µM. For the same molecule, the “NF-κB activation in the ILG” value (NF-κB) was “suppressed”.
